Measured values reported in ChEMBL document CHEMBL1201862, “PubChem BioAssay data set” (2004).
One block for each compound: values may come before it. Calls of active or inactive are those of the source.

Assays:
H9c2 = experiment: cells; type: functional, cell-based; details: Rattus norvegicus, H9c2, Myocardium;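 further: confirmatory concentration-response retest of ultra-high-throughput screening hits for modulation of myocardial damage; cell death induced by hydrogen peroxide oxidative stress; compound pretreatment for 60 min then peroxide exposure for 2 h; potency is for protecting the cells against peroxide damage rather than for killing them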
[1] = biological target: T1, Zinc finger protein mex-5 (Caenorhabditis elegans, UniProt Q9XUB2); experiment: MEX-5/TCR-2 RNA interaction inhibitors, dose response, biochemical, C. elegans, fluorescence polarization (AID 1960)
T1 sequence (Q9XUB2 whole entry): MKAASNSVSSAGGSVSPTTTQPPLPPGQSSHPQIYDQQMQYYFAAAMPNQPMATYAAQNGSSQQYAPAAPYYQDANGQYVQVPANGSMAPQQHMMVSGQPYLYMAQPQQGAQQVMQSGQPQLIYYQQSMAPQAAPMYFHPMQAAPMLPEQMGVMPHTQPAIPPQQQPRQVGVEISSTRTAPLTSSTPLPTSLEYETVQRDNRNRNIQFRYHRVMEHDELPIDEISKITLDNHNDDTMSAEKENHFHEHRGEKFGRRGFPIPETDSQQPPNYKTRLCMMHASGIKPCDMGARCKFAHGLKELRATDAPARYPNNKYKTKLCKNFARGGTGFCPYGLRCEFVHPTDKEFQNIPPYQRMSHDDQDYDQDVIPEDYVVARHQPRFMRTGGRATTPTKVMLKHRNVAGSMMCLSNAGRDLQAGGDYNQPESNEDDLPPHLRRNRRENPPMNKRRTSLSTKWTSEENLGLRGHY

[2] = biological target: T2, RNA-binding protein pos-1 (Caenorhabditis elegans, UniProt G5EF15); experiment: inhibitors of POS-1/mex-3 RNA binding, dose response, biochemical, fluorescence polarization (AID 1964);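 further: purified POS-1 fused to maltose binding protein made in E. coli; potency of compounds blocking POS-1 binding to fluorescent RNA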
T2 sequence (G5EF15 whole entry): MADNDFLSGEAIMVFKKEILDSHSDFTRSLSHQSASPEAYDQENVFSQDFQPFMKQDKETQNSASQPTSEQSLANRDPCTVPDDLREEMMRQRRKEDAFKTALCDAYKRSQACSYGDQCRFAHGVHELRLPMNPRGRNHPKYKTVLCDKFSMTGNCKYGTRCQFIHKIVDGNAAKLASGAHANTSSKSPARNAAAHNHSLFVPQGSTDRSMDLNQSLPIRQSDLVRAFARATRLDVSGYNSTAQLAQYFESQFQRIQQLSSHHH

[3] = control 3'UTR Renilla luciferase suppression, dose response, counter-screen for Shn3 inhibitor project, cell-based, Clone20-Shn3RL, cherry-picked (AID 624133); type: functional
[4] = Shn3 3'UTR reporter inhibitors, dose response, cell-based, Clone20 osteoblasts, firefly luciferase, cherry-picked (AID 624132); type: functional;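 further: firefly luciferase luminescence from reporter carrying the Shn3 3'UTR in osteoblasts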
[5] = biological target: Heat shock protein HSP 90-alpha (Homo sapiens, UniProt P07900); type: functional, organism-based
[6] = growth suppression of beta-catenin-knockout colon cells, dose response, cell-based, HCT116, human colon tumor (AID 1045); type: functional;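 further: HCT116 colon tumor cells with beta catenin knocked out; cells exposed to compound for 60 hours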
[7] = Luminescence Cell-Based Dose Retest to Confirm Inhibitors of Cancer Stem Cells. [Related pubchem assays (depositor defined):AID2717, AID2721]; type: functional; details: Homo sapiens
INS1 = experiment: beta cell apoptosis inhibitors, cytokine rescue, dose response, luminescence, retest (AID 449756); type: functional, cell-based; details: Rattus norvegicus;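 further: cell death triggered by IL-1 beta plus TNF-alpha plus IFN-gamma mixture; protective hits raise ATP signal compared with cytokine alone wells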
[8] = growth suppression of PTEN-null colon cells, dose response, cell-based, HCT116 PTEN knockout (AID 1047); type: functional;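 further: HCT116 colon tumor cells with PTEN knocked out; cells exposed to compound for 60 hours before readout; potency for loss of cell viability measured by luminescence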
Fatty acid synthase [9] = biological target: T3, Fatty acid synthase (Homo sapiens, UniProt P49327); experiment: FAS thioesterase domain inhibitors, dose response, biochemical, endpoint fluorescence intensity, uHTS hits (AID 624327); type: functional;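 further: fluorescence from hydrolysis of an O-methyl fluorescein acyl ester substrate by the enzyme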
T3 sequence (P49327 whole entry, the tested form may be a part): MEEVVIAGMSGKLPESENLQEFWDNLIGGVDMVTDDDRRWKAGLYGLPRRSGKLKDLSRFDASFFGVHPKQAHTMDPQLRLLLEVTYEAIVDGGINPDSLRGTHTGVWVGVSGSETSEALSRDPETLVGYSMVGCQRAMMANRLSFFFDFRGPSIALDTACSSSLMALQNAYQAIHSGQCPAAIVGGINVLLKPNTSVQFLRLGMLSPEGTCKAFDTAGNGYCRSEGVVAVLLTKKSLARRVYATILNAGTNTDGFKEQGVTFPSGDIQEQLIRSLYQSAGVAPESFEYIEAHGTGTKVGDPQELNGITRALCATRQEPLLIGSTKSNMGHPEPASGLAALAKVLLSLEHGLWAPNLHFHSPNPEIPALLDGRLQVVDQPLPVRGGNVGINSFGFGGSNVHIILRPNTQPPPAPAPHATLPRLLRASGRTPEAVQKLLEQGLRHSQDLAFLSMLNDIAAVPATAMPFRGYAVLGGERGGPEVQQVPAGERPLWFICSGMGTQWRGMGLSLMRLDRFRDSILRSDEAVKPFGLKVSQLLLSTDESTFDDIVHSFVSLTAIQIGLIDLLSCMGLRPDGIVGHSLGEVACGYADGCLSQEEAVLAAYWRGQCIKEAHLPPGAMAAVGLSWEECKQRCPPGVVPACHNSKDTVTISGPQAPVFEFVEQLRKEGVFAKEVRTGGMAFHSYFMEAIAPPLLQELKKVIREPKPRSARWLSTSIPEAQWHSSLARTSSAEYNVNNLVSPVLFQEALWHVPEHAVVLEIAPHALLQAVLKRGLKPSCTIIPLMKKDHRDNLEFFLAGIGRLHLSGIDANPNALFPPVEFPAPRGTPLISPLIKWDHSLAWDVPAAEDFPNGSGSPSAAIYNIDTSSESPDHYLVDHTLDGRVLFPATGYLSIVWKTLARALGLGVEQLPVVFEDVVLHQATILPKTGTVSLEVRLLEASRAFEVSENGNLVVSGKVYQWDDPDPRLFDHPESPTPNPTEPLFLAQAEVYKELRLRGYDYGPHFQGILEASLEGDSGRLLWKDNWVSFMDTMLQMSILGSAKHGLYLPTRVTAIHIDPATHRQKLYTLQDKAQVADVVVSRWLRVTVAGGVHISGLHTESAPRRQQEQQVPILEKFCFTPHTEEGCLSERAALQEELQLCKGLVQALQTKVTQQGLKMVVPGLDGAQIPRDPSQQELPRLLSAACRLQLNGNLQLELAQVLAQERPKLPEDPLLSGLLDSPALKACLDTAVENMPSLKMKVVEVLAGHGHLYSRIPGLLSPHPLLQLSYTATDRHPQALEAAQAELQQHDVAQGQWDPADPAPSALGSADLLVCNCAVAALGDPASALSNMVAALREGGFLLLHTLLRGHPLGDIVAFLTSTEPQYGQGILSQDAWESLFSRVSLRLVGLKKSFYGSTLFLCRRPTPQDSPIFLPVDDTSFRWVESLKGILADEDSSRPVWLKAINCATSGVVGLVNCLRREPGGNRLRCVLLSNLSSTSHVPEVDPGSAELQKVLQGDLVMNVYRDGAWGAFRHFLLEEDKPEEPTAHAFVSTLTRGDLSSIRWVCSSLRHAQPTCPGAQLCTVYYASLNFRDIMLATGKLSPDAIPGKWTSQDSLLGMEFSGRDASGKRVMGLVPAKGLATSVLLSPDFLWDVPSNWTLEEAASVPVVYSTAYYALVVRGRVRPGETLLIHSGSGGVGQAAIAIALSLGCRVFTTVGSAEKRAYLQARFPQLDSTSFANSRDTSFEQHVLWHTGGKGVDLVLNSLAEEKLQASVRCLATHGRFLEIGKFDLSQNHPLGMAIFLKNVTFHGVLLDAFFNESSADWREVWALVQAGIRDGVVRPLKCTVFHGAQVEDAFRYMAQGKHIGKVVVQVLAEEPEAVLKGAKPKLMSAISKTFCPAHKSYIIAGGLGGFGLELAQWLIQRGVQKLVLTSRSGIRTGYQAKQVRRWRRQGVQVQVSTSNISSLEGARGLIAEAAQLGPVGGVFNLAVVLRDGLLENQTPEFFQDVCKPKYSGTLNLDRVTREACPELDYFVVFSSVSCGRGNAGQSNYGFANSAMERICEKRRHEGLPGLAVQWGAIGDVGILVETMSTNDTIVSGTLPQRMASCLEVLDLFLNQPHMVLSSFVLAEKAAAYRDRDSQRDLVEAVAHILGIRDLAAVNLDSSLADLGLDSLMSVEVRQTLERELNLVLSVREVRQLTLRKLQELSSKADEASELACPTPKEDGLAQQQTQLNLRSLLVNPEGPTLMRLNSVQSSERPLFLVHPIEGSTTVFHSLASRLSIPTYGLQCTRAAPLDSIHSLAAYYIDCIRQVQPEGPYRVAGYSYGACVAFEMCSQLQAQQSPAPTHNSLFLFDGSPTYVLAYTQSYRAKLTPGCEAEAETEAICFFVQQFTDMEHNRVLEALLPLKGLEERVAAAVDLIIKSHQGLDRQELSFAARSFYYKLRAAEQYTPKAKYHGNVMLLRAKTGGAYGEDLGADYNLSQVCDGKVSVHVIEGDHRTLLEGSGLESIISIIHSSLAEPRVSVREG

Fatty acid synthase [10] = biological target: T3, Fatty acid synthase; experiment: FAS thioesterase domain inhibitors, dose response, biochemical, kinetic fluorescence intensity (AID 624326); type: functional;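 further: rate of fluorescence rise from hydrolysis of a fluorogenic O-methyl fluorescein ester substrate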
[11] = biological target: T4, Rac GTPase-activating protein 1 (Homo sapiens, UniProt Q9H0H5); experiment: MgcRacGAP GTPase-activating activity inhibitors, confirmation, biochemical, ADP Hunter fluorescence, primary and confirmatory (AID 624330); type: functional
T4 sequence (Q9H0H5 whole entry): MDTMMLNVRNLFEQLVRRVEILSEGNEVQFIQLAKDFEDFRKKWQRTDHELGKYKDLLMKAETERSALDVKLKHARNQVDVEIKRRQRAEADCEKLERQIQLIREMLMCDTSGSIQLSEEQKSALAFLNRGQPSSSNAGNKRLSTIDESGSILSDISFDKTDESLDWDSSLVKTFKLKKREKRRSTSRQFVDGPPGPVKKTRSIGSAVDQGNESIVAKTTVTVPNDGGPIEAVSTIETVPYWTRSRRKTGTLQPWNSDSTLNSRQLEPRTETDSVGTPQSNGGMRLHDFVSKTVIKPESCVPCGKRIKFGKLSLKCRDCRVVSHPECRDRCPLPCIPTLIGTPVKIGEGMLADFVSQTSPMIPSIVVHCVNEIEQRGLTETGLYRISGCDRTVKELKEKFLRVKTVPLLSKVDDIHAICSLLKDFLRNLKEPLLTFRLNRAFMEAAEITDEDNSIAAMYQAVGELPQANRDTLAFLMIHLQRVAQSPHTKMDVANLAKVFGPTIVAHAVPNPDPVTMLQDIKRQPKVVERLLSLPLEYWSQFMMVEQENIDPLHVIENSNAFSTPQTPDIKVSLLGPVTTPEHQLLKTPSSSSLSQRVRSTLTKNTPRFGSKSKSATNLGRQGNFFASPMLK

[12] = biological target: FAD-linked sulfhydryl oxidase ALR (Homo sapiens, UniProt P55789); experiment: inhibitors of human ALR sulfhydryl oxidase, dose response, biochemical, H2O2 detection, luminescence, cherry-pick (AID 493248)
Sequence of FAD-linked sulfhydryl oxidase ALR (P55789 whole entry): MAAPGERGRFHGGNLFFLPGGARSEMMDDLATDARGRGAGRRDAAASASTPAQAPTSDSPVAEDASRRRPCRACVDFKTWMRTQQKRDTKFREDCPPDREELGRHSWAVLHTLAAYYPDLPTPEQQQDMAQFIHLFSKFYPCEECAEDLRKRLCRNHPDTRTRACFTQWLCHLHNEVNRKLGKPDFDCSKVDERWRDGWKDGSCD

BJ [13] = experiment: cytotoxicity toward BJ-TERT fibroblasts, dose response, cell-based, RAS-independent, luminescence (AID 1933); type: functional; details: Homo sapiens
BJ [14] = experiment: cytotoxicity toward BJ-TERT-LT-ST fibroblasts, dose response, cell-based, RAS-independent, luminescence (AID 1935); type: functional; details: Homo sapiens;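 further: BJ fibroblasts immortalized with TERT plus LT and ST oncogenes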
BJ [15] = experiment: cells; type: functional, cell-based; details: Homo sapiens
[16] = cytotoxicity toward DRD oncogenic fibroblasts, dose response, cell-based, non-viral oncogenic, luminescence (AID 1934); type: functional; details: Homo sapiens
[17] = biological target: T5, Calpain-2 catalytic subunit (Sus scrofa, UniProt P43367); experiment: pig calpain II inhibitor potency, dose response, biochemical, fluorogenic peptide substrate (AID 1420); type: functional
T5 sequence (P43367 whole entry): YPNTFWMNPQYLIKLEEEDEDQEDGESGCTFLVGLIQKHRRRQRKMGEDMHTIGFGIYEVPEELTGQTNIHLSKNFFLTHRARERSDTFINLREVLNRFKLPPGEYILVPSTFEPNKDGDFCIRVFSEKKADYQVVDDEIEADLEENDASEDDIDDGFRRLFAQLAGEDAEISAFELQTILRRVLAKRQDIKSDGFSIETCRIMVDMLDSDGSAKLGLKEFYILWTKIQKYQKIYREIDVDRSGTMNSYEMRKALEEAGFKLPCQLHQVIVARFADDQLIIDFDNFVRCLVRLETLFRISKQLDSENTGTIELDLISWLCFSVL

[18] = Luminescence Cell-Based Dose Confirmation HTS to Identify Inhibitors of Platelet Dense Granule Release. [Related pubchem assays: 1663 (Primary HTS), 1678 (Summary of Project)]; type: functional
[19] = biological target: Luciferin 4-monooxygenase (Photinus pyralis, UniProt P08659); experiment: firefly luciferase enzyme inhibitors, dose response, biochemical, luminescence (AID 1891)
Sequence of Luciferin 4-monooxygenase (P08659 whole entry): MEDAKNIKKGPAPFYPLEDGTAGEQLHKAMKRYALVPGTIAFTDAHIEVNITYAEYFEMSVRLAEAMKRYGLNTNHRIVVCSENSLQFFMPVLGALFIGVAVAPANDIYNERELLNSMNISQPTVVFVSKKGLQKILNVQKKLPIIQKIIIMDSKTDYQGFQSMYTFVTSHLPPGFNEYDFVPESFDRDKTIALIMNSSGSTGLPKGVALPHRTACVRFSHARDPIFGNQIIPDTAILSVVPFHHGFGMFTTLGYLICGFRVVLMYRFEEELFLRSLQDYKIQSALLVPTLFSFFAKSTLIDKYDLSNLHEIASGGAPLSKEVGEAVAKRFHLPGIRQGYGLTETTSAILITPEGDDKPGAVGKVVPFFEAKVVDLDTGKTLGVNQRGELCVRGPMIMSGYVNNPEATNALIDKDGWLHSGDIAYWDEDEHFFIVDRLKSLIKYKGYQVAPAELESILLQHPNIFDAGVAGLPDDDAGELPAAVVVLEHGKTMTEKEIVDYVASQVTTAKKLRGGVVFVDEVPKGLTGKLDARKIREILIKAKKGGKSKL

Compound: Cn1c(-c2ccc(Cl)cc2)cnc1N
IC50 (H9c2): > 79 µM (inactive)

Compound: Cc1ccc(-n2c(=O)c(C#N)cc3c(=O)n4ccccc4nc32)cc1C
EC50 [1]: 55.8 µM (active)
EC50 [2]: > 300 µM (not active)

Compound: S=C(Nc1ccccc1)Nc1ccc(OCc2ccc(Cl)cc2Cl)cc1
AC50 [3]: 0.406 µM (active)
AC50 [4]: 0.405 µM (active)

Compound: Cc1cccc(Nc2nc(N)c([N+](=O)[O-])c(N3CC(C)CC(C)C3)n2)c1 (stereo not drawn)
AC50 [5]: 7.38 µM (active)
EC50 [6]: 15.1 µM (active)
AC50 [7]: 6.36 µM (active)
AC50 (INS1): 8.89 µM (active)
EC50 [8]: 13.1 µM (active)

Compound: O=C(c1ccccc1)c1coc2ccc(O)c(Cl)c12
IC50 [11]: 75.4 µM (active)

Compound: CC1CCc2nn(CC(=O)NCCN3CCCCC3C)cc2C1 (stereo not drawn)
EC50 [1]: > 300 µM (not active)
EC50 [2]: > 300 µM (not active)

Compound: O=C1Nc2ccccc2/C1=C1\SC(=S)N(Cc2ccccc2Cl)C1=O
EC50 (BJ [13]): 10.8 µM (inconclusive)
EC50 (BJ [14]): > 75 µM (inconclusive)
EC50 (BJ [15]): > 150 µM (not active)
EC50 [16]: 23 µM (active)

Compound: CC(OC(=O)Cn1[nH]c(=O)c2ccccc2c1=O)C(=O)Nc1ccc(F)cc1Cl (stereo not drawn)
IC50 (H9c2): > 79 µM (inactive)

Compound: COc1cccc(C(=O)Nc2cccc(-c3nnc(-c4ccco4)o3)c2)c1
IC50 (H9c2): 28.2 µM (active)
IC50 [17]: > 50 µM (not active)

Compound: O=[N+]([O-])c1ccc(N=Nc2c(Cl)cc(O)cc2Cl)cc1
EC50 (BJ [13]): 5.98 µM (active)
EC50 [18]: 1.98 µM (active)
EC50 (BJ [14]): 5.78 µM (active)
EC50 (BJ [15]): 4.44 µM (active)
EC50 [19]: 0.137 µM (active)
EC50 [16]: 4.74 µM (active)
AC50 [5]: 0.574 µM (active)
AC50 (INS1): 1.73 µM (active)

More lines, now with the values ahead:

EC50 [1]: > 300 µM (inconclusive)
EC50 [2]: > 300 µM (not active)
Compound: COc1ccccc1C(=O)Nc1ccnn1C1CCN(C(C)CSC)CC1 (stereo not drawn)

IC50 (Fatty acid synthase [9]): 2.25 µM (active)
IC50 (Fatty acid synthase [10]): 1.57 µM (active)
Compound: O=C(COC(=O)c1cc([N+](=O)[O-])ccc1N1CCOCC1)Nc1cc(F)ccc1F

IC50 (Fatty acid synthase [9]): 5.24 µM (active)
IC50 (Fatty acid synthase [10]): 3.44 µM (active)
Compound: COc1ccc(-n2c(SCc3ccc([N+](=O)[O-])cc3)nnc2-c2ccccc2)cc1

IC50 [11]: 149 µM (active)
Compound: COc1ccc(CNCc2cccc(OC)c2OC)cc1Br

IC50 [11]: 108 µM (active)
AC50 [12]: 2.19 µM (active)
Compound: COc1ccc(NC2CCCN(C(=O)CCc3cn[nH]c3)C2)cc1 (stereo not drawn)

IC50 [11]: 12.5 µM (active)
Compound: Cc1cnc(C(=O)Oc2ccc(-c3ccccc3)cc2)cn1
